# Results: US10648917B2, “Luminescent compositions and applications thereof” (THE PENN STATE RESEARCH FOUNDATION, priority 2015, dated 2020)
# Entries after “also recorded” stand apart in the source; their conditions may differ.
# How the values were obtained:
# [1] = pH dependence of fluorescence / pH sensing; type: physicochemical
# Procedure: Absorbance Spectra were recorded on Tecan Infinite M200 Pro UV-vis spectroscopy, and fluorescence spectra were recorded on Horiba FluoroMax-4 fluorospectroscopy at concentrations below 0.1 O.D. unless otherwise indicated. Quantum Yields were measured on the Quantum φ Integrating Sphere accessory to the FluoroMax-4, while lifetime measurements were determined through the Time-Correlation Single Photon Counting (TCSPC) accessory to the FluroMax-4. TCSPC was utilized in conjunction with NanoLED pulsed diode light source with peak excitation wavelength at 352 nm and at 10,000 counts peak preset. Emission was collected at the fluorescence λmax, unless otherwise indicated. For all pH-dependence experiments, sample pH was adjusted with sulfuric acid or sodium hydroxide. For all chloride-dependent quenching experiments, magnesium chloride hexahydrate (Sigma Aldrich) was used.
# pH Dependence of CA-Cys Fluorescence. Of all solvent and environmental factors that affect fluorescence, CA-Cys appeared to display the greatest sensitivity to changes in pH. […] From a detailed analysis of FIG. 13, four correlations were observed. Fluorescence properties of CA-Cys were invariable from high basicity to a pH of 4.84, from which the excitation λmax began to red-shift from 350 nm, emission λmax began to red-shift from 418 nm, maximum fluorescence intensity began to decrease, and quantum yield began to decrease. As acidity was increased, all four trends continued until pH 2.44, from which the excitation λmax plateaued at 365 nm, emission plateaued at 445 nm, and fluorescence intensity and quantum yield both experienced a short local plateau. Similarly, Stokes shift increased from 67 nm to 80 nm in high acidity. Lastly, absorbance λmax shifted similarly to that of the maximum excitation, while absorbance intensities remained relatively constant. […] All of these patterns were reminiscent of a pH-dependent equilibrium, thus the predominant mechanism of intensity quenching and bathochromic shifts was hypothesized to be attributed to changes in protolytic equilibria. The noticeably linear quenching of intensities past pH 1.63 is discussed with respect to lifetime analysis herein below.
# There is a predictable, linear increase in intensity from pH 3 to 4.5. Furthermore, emission collected at a fixed 445 nm is shown in FIG. 15 to be an isobestic point where intensities are independent of pH (up to pH 1), which should greatly improve the functionality of CA-Cys as a pH sensor. In other words, utilizing 445 nm as a dual-wavelength reference point allows for background subtraction and normalization with respect to absorbance or concentration. […] Furthermore, I418 nm/I445 nm increases linearly in the region of pH 3 to 4.5 for accurate determination of pH within this region, plotted and fitted with an R^2 value of 0.982. To sum up, I418 nm/I445 nm values near 1.6 indicate pH above 4.5, values below 0.7 indicate highly acidic environments below pH 3, while any intermediate I418 nm/I445 nm values can determine the exact pH with good accuracy. It is important to note that CA-Cys fluorescence is in accordance with Kasha's rule, i.e. fluorescence occurs from the lowest excited state, S1→S0, thus the emission λmax is independent of the excitation wavelength, and a fluorescence excitation scan at a fixed emission of 418 nm or 445 nm would provide the maximum fluorescence intensity for that emission wavelength. Also of importance is the reliable range of the isobestic point, which is broken at high acidities (noticeably below pH 1) due to dynamic quenching effects.
# [2] = tested on: NIH 3T3 mouse fibroblasts; experiment: In vitro cytotoxicity, CCK-8 cell viability assay; type: cell-based; settings: for cell viability: 24 h
# Procedure: NIH 3T3 mouse fibroblasts (ATCC) were used as model cells for in vitro cytotoxicity evaluations. The cells were cultured in Dulbecco's modified eagle's medium (DMEM), which had been supplemented with 10% fetal bovine serum (FBS) and 1% penicillin streptomycin. The culture flasks were kept in an incubator maintained at 37° C., 5% CO2, and 95% relative humidity. For a typical cytotoxicity study, 3T3 cells were seeded with a density of 5×10^4 cells/ml. […] of cell suspension in DMEM was added to each well in a 96-well plate and then incubated for 24 h. The culture medium was changed to 100 μL of DMEM containing the CFDs with various concentrations and followed by another 24 h incubator. A CCK-8 cell viability assay was used for a quantitative assessment of the viable cells according to the manufacturer's protocol. Viability of cells was normalized to the control of tissue culture plates (n=5).
# The in vitro toxicity of CFDs was evaluated by incubating them with NIH 3T3 mouse fibroblasts at different concentrations. […] Therefore, CFDs are generally biocompatible fluorescent compounds that can be used at a high dosage. […] The red fluorescence was relatively weak since CA-Cys has relatively weak red fluorescence emission.
# 3T3 cells = experiment: Fluorescence cell labelling, confocal microscopy; type: cell-based, mouse; settings: 500 μg/ml for 24 hours; DAPI, FITC, Cy3 channels
# [3] = Acid-base titration with NaOH (pKa, protolytic states); type: physicochemical
# Procedure: The pKa values of CA-Cys were determined through acid-base titration with NaOH. Titration curves support the presence of two carboxyl groups with close pKa values for two reasons. The molar mass of CA-Cys, 241 g/mol as determined by LC-ESI-MS, matches the molar mass value of 245.6 g/mol determined by titration only when assuming a diprotic acid. Moreover, the long buffered region of the titration curve supports the presence of two carboxyl groups with close pKas that are overlapping the first inflection point, estimated to be at ½ NaOH volume of the end point.
# Based on the pKa values determined from 2.4, a theoretical protolytic equilibria was established based on equations 1-3 below: […]
# [4] = Chlorine sensing by fluorescence titration; type: physicochemical
# Source text: This chlorine detection method seems to be much more sensitive than for halide detection, as chlorine in tap water diluted 1:2 can be measured. Furthermore, because measurement is based on the titration point, the presence of halides in solution would only lower the slope of the fluorescence plots without affecting the titration point. In reverse order of what observed results for halide quenching, sensing of bromine is much less sensitive than chlorine. Visual confirmation of the titration point is possible with a UV lamp, allowing for a low-cost and low-tech method of chlorine determination. It should also be noted that by varying the use of amine-containing molecules used in the syntheses of fluorophores described herein, it was possible to tune the chloride sensing at neutral pH.
# [5] = 2500 μg/ml, vs control (p<0.01)
structure (smiles),measurement,setting,value
CC(C(=O)O)N1C(=O)C=C(C(=O)O)CC1=O (stereo not shown) [CA-Ala],pH of sharp colorimetric transition,[1],9.75
same,cell viability,"[2]; 1000 μg/ml, vs control",no significant decrease in cell viability
same,cell viability,[2]; [5],significant decrease
O=C(O)c1cc2n(c(=O)c1)C(C(=O)O)CS2 (stereo not shown) [CA-Cys],fluorescence from cells after uptake,3T3 cells,Strong fluorescence was observed; also recorded: strong DAPI-channel fluorescence
same,emission transition (pH),[1],3.27
same,isobestic absorption point (pH),[1],3.35
same,I418 nm/I445 nm ratio,[1]; acidic range,0.7
same,I418 nm/I445 nm ratio,[1]; basic range,1.6
same,Stokes shift,[1]; before increase (basic),67 nm
same,emission λmax plateau,[1]; from pH 2.44,445 nm
same,excitation λmax plateau,[1]; from pH 2.44,365 nm
same,quenching of emission intensity at fixed 418 nm,[1]; from pH 4.5-11 to pH 1-3,roughly 2.25 fold
same,emission λmax,[1]; high basicity to pH 4.84,418 nm
same,excitation λmax,[1]; high basicity to pH 4.84,350 nm
same,Stokes shift,[1]; in high acidity,80 nm
same,quenching of overall fluorescence,[1]; upon protonation of first carboxyl group,1.37 fold
same,cell viability,"[2]; 1000 μg/ml, vs control",no significant decrease in cell viability
same,cell viability,[2]; [5],significant decrease
same,dosage with in-vitro cytocompatibility,[2]; 3T3 cell line,up to 10.3 mM
same,pKa1 (3-carboxyl group),[3],2.345
same,pKa2 (7-carboxyl group),[3],3.41
same,Exists at pH,[3]; Anion protolytic state,2.35~3.41
same,Exists at pH,[3]; Dianion protolytic state,>3.41
same,Exists at pH,[3]; Neutral protolytic state,<2.35
same,sensitivity to chlorine,[4],sensitive to chlorine
